Results reported in PMC12668310, “High‐Throughput Synthesis and Screening of a Cyanimide Library Identifies Selective Inhibitors of ISG15‐Specific Protease mUSP18” (Angewandte Chemie (International Ed. in English), 2025).
“And” between values parts separate entries of the source, which are not always exact repeats. Identical values can stand only once. Like-named read-outs stand apart in the source and are kept apart here.

Target: T1, mUSP18 (Mus musculus, UniProt Q9WTV6)
T1 construct: (46-368); His-tag (N); made in house
T1 sequence (Q9WTV6 46-368): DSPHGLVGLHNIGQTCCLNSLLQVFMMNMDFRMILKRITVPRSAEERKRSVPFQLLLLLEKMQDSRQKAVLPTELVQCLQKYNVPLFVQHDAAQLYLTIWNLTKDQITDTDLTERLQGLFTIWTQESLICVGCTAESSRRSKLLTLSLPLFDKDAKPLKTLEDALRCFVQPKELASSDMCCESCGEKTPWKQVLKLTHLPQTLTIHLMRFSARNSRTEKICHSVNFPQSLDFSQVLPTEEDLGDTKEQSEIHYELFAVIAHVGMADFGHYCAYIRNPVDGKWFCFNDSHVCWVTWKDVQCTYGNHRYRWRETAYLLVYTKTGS
Test: High-throughput screening, ISG15ct-RhoMP, single dose 1.25 µM
Type: biochemical, murine
Settings: for inhibition at 1.25 µM / %inh CA only / %inh CA + DIC/HOBT: mUSP18 %inhibition

[1] = carboxylic acid (CA) building block alone, read-out: %inh CA only
[2] = carboxylic acid (CA) with coupling reagents DIC/HOBT, read-out: %inh CA + DIC/HOBT
[3] = carboxylic acid (CA) building block alone
[4] = carboxylic acid (CA) with coupling reagents DIC/HOBT

SMILES	inhibition at 1.25 µM [1]	inhibition at 1.25 µM [2]	%inh CA only [3]	%inh CA + DIC/HOBT [4]	inhibition of mUSP18 by individual CA's and coupling reagents (screened with and without DIC/HOBt)
O=C(O)c1cccnc1Oc1ccc(Cl)cc1Cl [CA427]	-5.52%	-6.68%	–	–	–
O=C(O)c1csc(C2CC2)n1 [CA236]	9.58%	1.88%	–	–	–
O=C(O)c1cnccn1 [CA081]	–	–	-6.50%	-13.28%	–
O=C(O)c1cnc(-c2cccs2)s1 [CA192]	11.7%	0.91%	–	–	–
O=C(O)c1ccc(OCn2cc(Cl)cn2)cc1 [CA231]	5.6%	6.49%	–	–	–
O=C(O)CC1(n2cccc2)CCCCC1 [CA229]	3.52%	5.66%	–	–	–
O=C(O)CN1CCOCC1 [CA074]	-1.88%	-17.1%	–	–	–
Cc1ccc(Br)c(C(=O)O)c1 [CA053]	–	–	-8.05%	-15.25%	–
Cc1cc(C(=O)O)c(C)n1C1CC1 [CA239]	7.06%	5.98%	–	–	–
Cc1nc(COc2ccc(C(=O)O)cc2)no1 [CA276]	4.94%	6.3%	–	–	–
O=C(O)c1ccc(N2CCOCC2)cc1 [CA086]	2%	15.8%	–	–	–
O=C(O)c1ccc2c(c1)ncn2C1CCCCO1 (centres unmarked) [CA084]	-10.2%	-14.9%	–	–	–
O=C(O)C(Cc1c[nH]cn1)NS(=O)(=O)c1ccc(Cl)cc1 (centres unmarked) [CA091]	20.4%	8.3%	–	–	–
Cc1noc(C)c1COc1ccc(CC(=O)O)cc1 [CA191]	4.33%	1.25%	–	–	–
O=C(O)c1c[nH]nc1-c1cccnc1 [CA140]	9.15%	7.35%	–	–	–
Cc1cc(C)c(C(=O)O)c(OCC2CCCCC2)n1 [CA131]	9.41%	31.3%	–	–	–
Cc1ccc(S(=O)(=O)N[C@@H](Cc2ccccc2)C(=O)O)cc1 [CA291]	3.32%	-0.72%	–	–	–
O=C(O)c1ccc(Cn2cncn2)cc1 [CA243]	6.44%	2.23%	–	–	–
O=C(O)Cc1csc(-c2ccccc2)n1 [CA428]	-0.27%	-5.62%	–	–	–
Cc1noc(C)c1Cc1ccc(C(=O)O)o1 [CA179]	2.24%	4.32%	–	–	–
O=C(O)CC1=NN(c2ncc(C(F)(F)F)cc2Cl)C(=O)C1 [CA193]	5.93%	4.27%	–	–	–
O=C(O)Cc1ccc(NS(=O)(=O)c2c(Cl)cccc2Cl)cc1 [CA141]	9.99%	2.69%	–	–	–
Cn1cc(-c2ocnc2C(=O)O)cn1 [CA102]	12.6%	14.3%	–	–	–
O=C(O)Cc1csc(-c2cnccn2)n1 [CA092]	15.3%	13.1%	–	–	–
O=C(O)c1cc(C2CCC2)on1 [CA456]	1.15%	-2.8%	–	–	–
O=C(O)CCN1C(=O)C=CC1=O [CA011]	7.63%	-2.16%	–	–	–
CC1=NN(c2ccc(C(=O)O)cc2)CC1 [CA155]	4.05%	20.8%	–	–	–

SMILES	inhibition at 1.25 µM [1]	inhibition at 1.25 µM [2]	%inh CA only [3]	%inh CA + DIC/HOBT [4]	inhibition of mUSP18 by individual CA's and coupling reagents (screened with and without DIC/HOBt)
Cc1onc(-c2ccncc2)c1C(=O)O [CA308]	7.23%	-3.66%	–	–	–
CN(Cc1ccnn1C)C(=O)C1CCCCC1C(=O)O (centres unmarked) [CA277]	5.25%	7.6%	–	–	–
O=C(O)C1(NS(=O)(=O)C=Cc2ccccc2)CCCC1 [CA334]	0.85%	6.5%	–	–	–
Cc1ccc(-c2cc(C(=O)O)n[nH]2)s1 [CA249]	4.85%	6.81%	–	–	–
O=C1CCC(=O)N(c2ccc(C(=O)O)cc2)N1 [CA209]	-2.74%	14.4%	–	–	–
O=C(O)c1cnn(Cn2cc(Cl)cn2)c1 [CA321]	-3.47%	1.28%	–	–	–
O=C(O)c1ncoc1-c1ccco1 [CA146]	8.58%	6.8%	–	–	–
CC(C)(C)OC(=O)Nc1ccccc1C(=O)O [CA009]	-1.43%	-19.3%	–	–	–
O=C(O)C1CC2CCC1O2 (centres unmarked) [CA356]	3.97%	-4.92%	–	–	–
O=C(O)c1ccc(C#Cc2ccccc2)cc1 [CA401]	8.14%	-4.27%	–	–	–
O=C(O)c1ccc(CNS(=O)(=O)c2ccc(F)c(F)c2F)cc1 [CA235]	13.6%	1.22%	–	–	–
CC(C)c1nc(Cn2cc(C(=O)O)ccc2=O)cs1 [CA233]	1.25%	15%	–	–	–
Cc1c(Br)cccc1C(=O)O [CA031]	-3.59%	-10.1%	–	–	–
O=C(O)Cc1coc(-c2ccccc2)n1 [CA136]	8.08%	12.8%	–	–	–
O=C(O)C1CCN(Cc2ccc(Cl)s2)CC1 [CA107]	13%	10.7%	–	–	–
O=C(O)C1CC(=O)N(CCOc2ccccc2Cl)C1 (centres unmarked) [CA185]	3.64%	9.2%	–	–	–
Cc1n[nH]c(C)c1S(=O)(=O)N1CCC(C(=O)O)CC1 [CA204]	-0.12%	3.04%	–	–	–
O=C(O)CCc1ccccc1 [CA072]	-7.29%	-13.3%	–	–	–
CCN1C(=O)C=CC1=O [NEM]	–	–	100.10% and 99.62%	99.98% and 100.30%	–
CC1CCCC(N2CC(C(=O)O)CC2=O)C1C (centres unmarked) [CA237]	7.37%	-3.69%	–	–	–
O=C(O)c1ccc(-c2cnco2)cc1 [CA255]	0.58%	7.03%	–	–	–
O=C(O)c1coc(-c2cccnc2)n1 [CA210]	21%	4.16%	–	–	–
O=C(O)c1cnoc1-c1ccccc1C(F)(F)F [CA269]	6.72%	5.54%	–	–	–
O=C(O)c1ccc(COc2ccccc2Br)cc1 [CA207]	-2.79%	10.7%	–	–	–
O=C(O)c1cccn1-c1c(Cl)cccc1Cl [CA302]	0.53%	98.1%	–	–	could inhibit mUSP18
O=C(O)C1CN(C(=O)OCc2ccccc2)CCO1 (centres unmarked) [CA300]	-2.04%	0.0181%	–	–	–
O=C(O)c1cc(S(=O)(=O)N2CCOCC2)c[nH]1 [CA199]	1.4%	2.51%	–	–	–

SMILES	inhibition at 1.25 µM [1]	inhibition at 1.25 µM [2]	%inh CA only [3]	%inh CA + DIC/HOBT [4]	inhibition of mUSP18 by individual CA's and coupling reagents (screened with and without DIC/HOBt)
O=C(O)c1cc(-c2ccc(Br)cc2)ns1 [CA165]	16%	9.48%	–	–	–
O=C(O)CC1(n2cnnn2)CCOCC1 [CA310]	3.18%	-2.42%	–	–	–
Cc1ccc(N(CCC(=O)O)S(=O)(=O)c2ccccc2)cc1 [CA163]	18.6%	0.52%	–	–	–
O=C(O)C1CCCN(c2ncccn2)C1 (centres unmarked) [CA411]	-4.05%	-6.74%	–	–	–
O=C(O)c1csc(C2CCCCC2)n1 [CA353]	14.4%	1.26%	–	–	–
CN(Cc1ccccc1)S(=O)(=O)c1ccc(C(=O)O)cc1 [CA267]	9.75%	5.3%	–	–	–
O=C(O)C1CC=CCC1C(=O)N1CCOCC1 (centres unmarked) [CA359]	4.09%	0.61%	–	–	–
O=C(O)c1ccccc1Cn1cncn1 [CA384]	-2.51%	-6.89%	–	–	–
O=C(O)c1nc(C2CC2)ncc1Br [CA338]	7.6%	-0.51%	–	–	–
CN1CCN(c2ccc(C(=O)O)cc2)CC1 [CA085]	5.37%	-9.79%	–	–	–
O=C(O)[1C@@H]1CCO[1C@H]1c1ccccc1 [CA123]	12.2%	8.31%	–	–	–
O=C(O)c1cc(-c2ccncc2)on1 [CA294]	-3.88%	-0.96%	–	–	–
Cn1ncc(C2CC2)c1C(=O)O [CA166]	10.9%	-0.27%	–	–	–
O=C(O)c1cnc(Cc2ccc(F)cc2)s1 [CA380]	-5.77%	-9.23%	–	–	–
O=C(O)c1cc(C2CCCCC2)[nH]n1 [CA248]	1.65%	7.2%	–	–	–
O=C(O)CC(NS(=O)(=O)c1ccccc1)c1ccc(Cl)cc1 (centres unmarked) [CA138]	22.3%	5.42%	–	–	–
CCn1nc(C(C)C)cc1C(=O)N1CCCCC1C(=O)O (centres unmarked) [CA431]	-2.4%	-10.1%	–	–	–
CCC1(Cn2cc(C(=O)O)nn2)COC1 [CA167]	10.3%	2.71%	–	–	–
O=C(O)Cc1ccc(S(=O)(=O)N2CCOCC2)s1 [CA149]	9.87%	8.05%	–	–	–
CC1CN(c2ccc(C(=O)O)cn2)CC(C)O1 (centres unmarked) [CA352]	-4.1%	13.3%	–	–	–
O=C(O)CNC(=O)c1ccccc1 [CA019]	-4.39%	-8.67%	–	–	–
O=Cc1ccc(O)c(C(=O)O)c1 [CA040]	1.03%	-7.73%	–	–	–
O=C(O)C1CCCN1C(=O)c1ccncc1 (centres unmarked) [CA290]	-0.53%	-3.12%	–	–	–
Cc1ncsc1C(=O)N(C)c1ccccc1C(=O)O [CA390]	-7.59%	-4.7%	–	–	–
O=C(O)c1coc(C#Cc2ccccc2)c1 [CA393]	-1.56%	-1.99%	–	–	–
Cc1onc(C(=O)O)c1CN1CCOCC1 [CA364]	5.31%	1.01%	–	–	–
